Reference: article PMC11295118, “Harnessing the Intrinsic Chemical Reactivity of the Mycotoxin Patulin for Immunosensing” (Analytical Chemistry, 2024)
Counter-ions that a name gives are not always drawn.

Tested on: monoclonal antibodies raised against BSA–Ia
Test: Specificity of the monoclonal antibodies by competitive ELISA
Format: binding, mice
Conditions: for recognition by the antibodies: competitors tested separately (without derivatization)
Text: The high affinity of the rabbit antisera for patulin after its transformation into adduct I motivated us to pursue the production of monoclonal antibodies (mAbs), given their high value in industry for the development of rapid commercial assays. To this end, standard hybridoma technology was employed with splenocytes from mice immunized with the bioconjugate BSA–Ia, the immunogen that elicited the best response in rabbits (Supporting Information). From two independent cell fusion experiments, three antibody-producing hybridomas capable of recognizing adduct I were generated. Following affinity purification, the mAbs were characterized by direct and indirect competitive ELISA using the homologous and the heterologous conjugate, i.e., based on hapten Ia or Ib, respectively. As summarized in Table S2, the three antibodies successfully recognized both coating conjugates (OVA–Ia and OVA–Ib), yielding IC50 values for patulin below 7.0 nM. […] In the direct competitive format, even better IC50 values were found with mAbs #13 and #17 when used with the homologous enzyme tracer HRP–Ia (IC50 = 0.7–0.8 nM). […]
dissolved in 8‐10 mL of 20 mM phosphate buffer, pH 7.4, and filtered through a nitrocellulose membrane (0.45 μm pore diameter). The resulting filtrate was purified by affinity chromatography with a 5 mL HiTrap Protein G HP column, and the antibody‐containing fractions were gathered and the buffer was exchanged to 20 mM phosphate buffer, pH 7.4, using Amicon Ultra 4 10k centrifugal devices. Final antibody concentration was calculated using the absorption at 280 nm and a molar extinction coefficient of 1.4 L g‐1 c m ‐1. The purified antibodies were precipitated with 1 volume of saturated ammonium sulphate for long‐term storage at 4 °C. […]
Antibody‐coated direct competitive ELISA. […] Following incubation during 10 min at rt, the reaction was stopped by adding 100 µL per well of 1 M H2SO4, and the absorbance was […]
Following incubation during 10 min at rt, the reaction was stopped by adding 100 µL per well of 1 M H2SO4, and the absorbance was immediately read. […]

Row | SMILES | recognition by the antibodies | inhibition curves compared with patulin after reacting with 7a (adduct I or derivatized patulin used as competitors)
1 | O=C1C=C2C(=CCOC2O)O1 (stereo not drawn) [patulin] | did not recognize | –
2 | [Na][S]c1ccccc1[S][Na] [7a, sodium salt of benzene-1,2-dithiol] | did not recognize | –
3 | O=C/C(CC(=O)O)=C1\Sc2ccccc2S[C@H]1CO [adduct I] | – | overlapped
